Reference: ChEMBL document CHEMBL1201862, “PubChem BioAssay data set” (2004)
The source made the active and inactive calls.

What was measured:
Fatty acid synthase [1] = target: T1, Fatty acid synthase (Homo sapiens, UniProt P49327); test: inhibition of human FAS-TE enzyme activity – biochemical, kinetic fluorescence intensity, dose response (AID 624326); format: functional;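 further: rate of fluorescence rise from hydrolysis of a fluorogenic O-methyl fluorescein ester substrate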
Fatty acid synthase [2] = target: T1, Fatty acid synthase; test: inhibition of human FAS-TE enzyme activity – biochemical, endpoint fluorescence intensity, uHTS hits, dose response (AID 624327); format: functional;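 further: fluorescence from hydrolysis of an O-methyl fluorescein acyl ester substrate by the enzyme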
Genome polyprotein = Genome polyprotein (dengue virus type 2, UniProt P29990); test: flavivirus cap methylation enzyme inhibition – biochemical, confirmation dose response, primary screen (AID 588689); format: functional
Sequence of Genome polyprotein (P29990 2492-3391 limits assumed): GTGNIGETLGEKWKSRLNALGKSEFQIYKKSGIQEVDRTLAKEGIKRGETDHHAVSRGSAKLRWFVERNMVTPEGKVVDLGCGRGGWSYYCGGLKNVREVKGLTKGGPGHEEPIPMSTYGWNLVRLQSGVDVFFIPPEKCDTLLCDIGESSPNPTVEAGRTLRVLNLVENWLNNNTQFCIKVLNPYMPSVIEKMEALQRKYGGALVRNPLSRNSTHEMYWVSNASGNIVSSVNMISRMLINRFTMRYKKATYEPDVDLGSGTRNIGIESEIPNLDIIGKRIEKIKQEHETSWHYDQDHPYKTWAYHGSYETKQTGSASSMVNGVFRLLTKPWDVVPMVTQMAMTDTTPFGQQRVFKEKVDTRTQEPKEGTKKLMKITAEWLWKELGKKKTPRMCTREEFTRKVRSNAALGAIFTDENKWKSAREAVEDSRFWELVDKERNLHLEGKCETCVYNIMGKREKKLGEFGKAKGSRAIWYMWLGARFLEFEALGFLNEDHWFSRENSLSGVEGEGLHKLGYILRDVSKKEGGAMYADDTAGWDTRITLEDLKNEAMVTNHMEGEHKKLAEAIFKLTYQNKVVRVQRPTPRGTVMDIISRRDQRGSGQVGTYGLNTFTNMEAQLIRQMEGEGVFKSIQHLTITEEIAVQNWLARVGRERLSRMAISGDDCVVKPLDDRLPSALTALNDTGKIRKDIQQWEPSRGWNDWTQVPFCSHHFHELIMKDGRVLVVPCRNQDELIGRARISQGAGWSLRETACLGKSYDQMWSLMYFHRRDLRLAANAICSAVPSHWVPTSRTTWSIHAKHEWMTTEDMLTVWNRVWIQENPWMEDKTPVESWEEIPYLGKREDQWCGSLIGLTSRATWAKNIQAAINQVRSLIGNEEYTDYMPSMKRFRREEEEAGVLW

Leucine aminopeptidase = target: T2, Leucine aminopeptidase (Plasmodium falciparum 3D7, UniProt Q8IL11); test: P. falciparum M17LAP inhibitors, primary screen, biochemical, fluorogenic H-Leu-NHMec substrate, 1536-well (AID 1619); format: functional
T2 sequence (Q8IL11 whole entry): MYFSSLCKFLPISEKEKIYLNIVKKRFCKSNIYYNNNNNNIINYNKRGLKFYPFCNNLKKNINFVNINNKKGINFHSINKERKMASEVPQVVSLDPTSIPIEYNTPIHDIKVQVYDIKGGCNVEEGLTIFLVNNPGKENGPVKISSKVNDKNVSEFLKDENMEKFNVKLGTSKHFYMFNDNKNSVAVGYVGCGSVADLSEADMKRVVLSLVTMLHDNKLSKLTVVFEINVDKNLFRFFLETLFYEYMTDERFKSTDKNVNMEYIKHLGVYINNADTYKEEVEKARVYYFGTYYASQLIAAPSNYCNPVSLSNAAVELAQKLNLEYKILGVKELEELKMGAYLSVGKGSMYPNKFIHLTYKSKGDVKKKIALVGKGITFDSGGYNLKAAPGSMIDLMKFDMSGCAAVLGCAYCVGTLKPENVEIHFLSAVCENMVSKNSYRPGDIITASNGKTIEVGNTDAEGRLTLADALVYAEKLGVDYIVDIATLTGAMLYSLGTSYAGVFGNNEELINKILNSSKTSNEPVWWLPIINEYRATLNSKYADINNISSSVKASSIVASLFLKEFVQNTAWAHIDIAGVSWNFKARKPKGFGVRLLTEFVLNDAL

[3] = target: T3, Polyadenylate-binding protein 1 (Homo sapiens, UniProt P11940); test: MLLE domain peptide-binding blockers, IC50 – biochemical, fluorescence polarization, FITC-PAM2 peptide, dose response (AID 602259); format: functional; conditions: read-out: IC50_Mean
T3 sequence (P11940 whole entry, the tested form may be a part): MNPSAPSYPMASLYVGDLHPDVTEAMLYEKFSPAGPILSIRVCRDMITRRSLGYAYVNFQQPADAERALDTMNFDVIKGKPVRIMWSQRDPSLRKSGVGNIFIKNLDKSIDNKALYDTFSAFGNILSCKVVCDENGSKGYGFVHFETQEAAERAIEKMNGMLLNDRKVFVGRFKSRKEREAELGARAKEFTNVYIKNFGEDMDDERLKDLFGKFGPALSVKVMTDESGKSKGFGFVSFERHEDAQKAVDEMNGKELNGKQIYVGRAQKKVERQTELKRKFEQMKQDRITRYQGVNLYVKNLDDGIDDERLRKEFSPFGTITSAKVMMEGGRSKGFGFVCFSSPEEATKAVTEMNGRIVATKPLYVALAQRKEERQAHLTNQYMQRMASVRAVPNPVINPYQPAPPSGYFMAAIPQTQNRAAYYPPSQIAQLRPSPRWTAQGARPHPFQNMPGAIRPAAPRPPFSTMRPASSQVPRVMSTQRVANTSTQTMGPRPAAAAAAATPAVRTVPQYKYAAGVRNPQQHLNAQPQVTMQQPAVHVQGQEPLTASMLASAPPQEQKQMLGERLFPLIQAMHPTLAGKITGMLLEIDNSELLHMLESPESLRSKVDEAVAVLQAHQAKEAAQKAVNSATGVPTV

[4] = target: T3, Polyadenylate-binding protein 1; test: MLLE binding blockers, Cy5 peptide tracer – biochemical, fluorescence polarization, Cy5-PAM2 peptide, secondary, miRNA deadenylation inhibitor project, dose response (AID 602260); format: functional; conditions: read-out: IC50_Mean
[5] = non-specific 3'UTR reporter inhibition in Clone20-Shn3RL – cell-based, Renilla luciferase, cherry-picked, counter-screen for Shn3 inhibitor project, dose response (AID 624133); format: functional
[6] = reduction of Shn3 3'UTR-driven luciferase in osteoblasts – cell-based, Clone20 osteoblasts, firefly luciferase, cherry-picked, dose response (AID 624132); format: functional;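 further: firefly luciferase luminescence from reporter carrying the Shn3 3'UTR in osteoblasts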
[7] = target: T4, Carboxy-terminal domain RNA polymerase II polypeptide A small phosphatase 1 (Homo sapiens, UniProt Q9GZU7); test: CTDSP1 inhibitors, concentration-response, biochemical, absorbance readout, ultra-high-throughput screen actives (AID 540297); format: functional
T4 sequence (Q9GZU7 whole entry): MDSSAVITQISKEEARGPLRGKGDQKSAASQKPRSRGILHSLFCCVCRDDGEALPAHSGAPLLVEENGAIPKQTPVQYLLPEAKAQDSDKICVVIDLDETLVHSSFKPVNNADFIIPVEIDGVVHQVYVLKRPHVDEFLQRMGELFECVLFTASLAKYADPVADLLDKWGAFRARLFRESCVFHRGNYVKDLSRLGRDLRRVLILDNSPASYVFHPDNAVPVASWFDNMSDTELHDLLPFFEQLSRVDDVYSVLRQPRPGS

[8] = HIV-1 AD8 envelope cell-cell fusion blockers – cherry-pick, dose response (AID 652062); format: functional, cell-based;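 further: luciferase signal from cell-cell fusion driven by HIV-1 clade B AD8 Env; potency is for inhibitors of fusion seen as a drop in luminescence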
[9] = target: T5, Corticotropin-releasing factor receptor 2/Corticotropin-releasing factor-binding protein (Homo sapiens, UniProt P24387+Q13324); test: activators of CRF receptor 2 with binding protein – uHTS hits, confirmation (AID 602473); format: functional; conditions: read-out: EC50_Mean
T5 sequence (Q13324 whole entry): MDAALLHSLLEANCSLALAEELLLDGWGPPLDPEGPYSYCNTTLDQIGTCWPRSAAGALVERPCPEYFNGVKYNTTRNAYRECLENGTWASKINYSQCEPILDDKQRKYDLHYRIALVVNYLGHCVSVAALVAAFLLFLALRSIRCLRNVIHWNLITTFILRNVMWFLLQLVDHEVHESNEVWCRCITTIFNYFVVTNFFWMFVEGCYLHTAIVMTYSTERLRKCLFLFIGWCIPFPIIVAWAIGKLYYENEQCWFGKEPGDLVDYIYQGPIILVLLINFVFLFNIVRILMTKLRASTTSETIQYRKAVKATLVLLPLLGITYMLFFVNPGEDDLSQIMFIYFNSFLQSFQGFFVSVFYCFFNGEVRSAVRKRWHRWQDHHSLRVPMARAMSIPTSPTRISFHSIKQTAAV
T5 sequence (P24387 whole entry): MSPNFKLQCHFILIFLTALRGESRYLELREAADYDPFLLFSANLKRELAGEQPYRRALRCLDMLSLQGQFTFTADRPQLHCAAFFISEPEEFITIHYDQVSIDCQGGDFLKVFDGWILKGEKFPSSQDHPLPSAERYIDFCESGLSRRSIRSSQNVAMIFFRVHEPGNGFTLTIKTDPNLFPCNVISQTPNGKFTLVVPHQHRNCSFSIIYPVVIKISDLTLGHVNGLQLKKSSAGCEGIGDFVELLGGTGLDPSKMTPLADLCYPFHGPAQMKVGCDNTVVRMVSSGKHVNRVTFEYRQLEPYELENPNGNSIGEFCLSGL

[10] = target: T5, Corticotropin-releasing factor receptor 2/Corticotropin-releasing factor-binding protein; test: Dose Response confirmation of uHTS hits for small molecule antagonists of the CRF-binding protein and CRF-R2 receptor complex.; format: functional; conditions: read-out: IC50_Mean
Paired box protein Pax-8 = Paired box protein Pax-8 (Homo sapiens, UniProt Q06710); test: PAX8 transcriptional activity inhibition in RMG-I – RMG-I cells, luciferase, cherry-pick, dose response (AID 687027); format: functional, cell-based;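 further: luciferase reporter driven by Pax8 target thyroperoxidase promoter measured by SteadyGlo luminescence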
Sequence of Paired box protein Pax-8 (Q06710 whole entry): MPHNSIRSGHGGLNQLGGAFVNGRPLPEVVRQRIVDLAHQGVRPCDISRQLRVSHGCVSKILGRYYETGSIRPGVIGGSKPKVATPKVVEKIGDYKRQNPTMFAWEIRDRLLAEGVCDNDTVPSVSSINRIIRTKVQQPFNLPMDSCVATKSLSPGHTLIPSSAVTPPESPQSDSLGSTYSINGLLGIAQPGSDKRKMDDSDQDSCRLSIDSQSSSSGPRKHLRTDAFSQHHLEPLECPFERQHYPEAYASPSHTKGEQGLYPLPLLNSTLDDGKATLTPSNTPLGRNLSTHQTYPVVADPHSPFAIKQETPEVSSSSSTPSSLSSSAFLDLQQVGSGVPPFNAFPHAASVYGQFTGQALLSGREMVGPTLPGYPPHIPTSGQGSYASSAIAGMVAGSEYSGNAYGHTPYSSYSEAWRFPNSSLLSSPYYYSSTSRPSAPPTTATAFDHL

[11] = OVCAR-3 cell viability loss – plate reader, dry powder samples, PAX8 inhibitor project, dose response (AID 743044); format: functional, cell-based

T1 sequence (P49327 whole entry): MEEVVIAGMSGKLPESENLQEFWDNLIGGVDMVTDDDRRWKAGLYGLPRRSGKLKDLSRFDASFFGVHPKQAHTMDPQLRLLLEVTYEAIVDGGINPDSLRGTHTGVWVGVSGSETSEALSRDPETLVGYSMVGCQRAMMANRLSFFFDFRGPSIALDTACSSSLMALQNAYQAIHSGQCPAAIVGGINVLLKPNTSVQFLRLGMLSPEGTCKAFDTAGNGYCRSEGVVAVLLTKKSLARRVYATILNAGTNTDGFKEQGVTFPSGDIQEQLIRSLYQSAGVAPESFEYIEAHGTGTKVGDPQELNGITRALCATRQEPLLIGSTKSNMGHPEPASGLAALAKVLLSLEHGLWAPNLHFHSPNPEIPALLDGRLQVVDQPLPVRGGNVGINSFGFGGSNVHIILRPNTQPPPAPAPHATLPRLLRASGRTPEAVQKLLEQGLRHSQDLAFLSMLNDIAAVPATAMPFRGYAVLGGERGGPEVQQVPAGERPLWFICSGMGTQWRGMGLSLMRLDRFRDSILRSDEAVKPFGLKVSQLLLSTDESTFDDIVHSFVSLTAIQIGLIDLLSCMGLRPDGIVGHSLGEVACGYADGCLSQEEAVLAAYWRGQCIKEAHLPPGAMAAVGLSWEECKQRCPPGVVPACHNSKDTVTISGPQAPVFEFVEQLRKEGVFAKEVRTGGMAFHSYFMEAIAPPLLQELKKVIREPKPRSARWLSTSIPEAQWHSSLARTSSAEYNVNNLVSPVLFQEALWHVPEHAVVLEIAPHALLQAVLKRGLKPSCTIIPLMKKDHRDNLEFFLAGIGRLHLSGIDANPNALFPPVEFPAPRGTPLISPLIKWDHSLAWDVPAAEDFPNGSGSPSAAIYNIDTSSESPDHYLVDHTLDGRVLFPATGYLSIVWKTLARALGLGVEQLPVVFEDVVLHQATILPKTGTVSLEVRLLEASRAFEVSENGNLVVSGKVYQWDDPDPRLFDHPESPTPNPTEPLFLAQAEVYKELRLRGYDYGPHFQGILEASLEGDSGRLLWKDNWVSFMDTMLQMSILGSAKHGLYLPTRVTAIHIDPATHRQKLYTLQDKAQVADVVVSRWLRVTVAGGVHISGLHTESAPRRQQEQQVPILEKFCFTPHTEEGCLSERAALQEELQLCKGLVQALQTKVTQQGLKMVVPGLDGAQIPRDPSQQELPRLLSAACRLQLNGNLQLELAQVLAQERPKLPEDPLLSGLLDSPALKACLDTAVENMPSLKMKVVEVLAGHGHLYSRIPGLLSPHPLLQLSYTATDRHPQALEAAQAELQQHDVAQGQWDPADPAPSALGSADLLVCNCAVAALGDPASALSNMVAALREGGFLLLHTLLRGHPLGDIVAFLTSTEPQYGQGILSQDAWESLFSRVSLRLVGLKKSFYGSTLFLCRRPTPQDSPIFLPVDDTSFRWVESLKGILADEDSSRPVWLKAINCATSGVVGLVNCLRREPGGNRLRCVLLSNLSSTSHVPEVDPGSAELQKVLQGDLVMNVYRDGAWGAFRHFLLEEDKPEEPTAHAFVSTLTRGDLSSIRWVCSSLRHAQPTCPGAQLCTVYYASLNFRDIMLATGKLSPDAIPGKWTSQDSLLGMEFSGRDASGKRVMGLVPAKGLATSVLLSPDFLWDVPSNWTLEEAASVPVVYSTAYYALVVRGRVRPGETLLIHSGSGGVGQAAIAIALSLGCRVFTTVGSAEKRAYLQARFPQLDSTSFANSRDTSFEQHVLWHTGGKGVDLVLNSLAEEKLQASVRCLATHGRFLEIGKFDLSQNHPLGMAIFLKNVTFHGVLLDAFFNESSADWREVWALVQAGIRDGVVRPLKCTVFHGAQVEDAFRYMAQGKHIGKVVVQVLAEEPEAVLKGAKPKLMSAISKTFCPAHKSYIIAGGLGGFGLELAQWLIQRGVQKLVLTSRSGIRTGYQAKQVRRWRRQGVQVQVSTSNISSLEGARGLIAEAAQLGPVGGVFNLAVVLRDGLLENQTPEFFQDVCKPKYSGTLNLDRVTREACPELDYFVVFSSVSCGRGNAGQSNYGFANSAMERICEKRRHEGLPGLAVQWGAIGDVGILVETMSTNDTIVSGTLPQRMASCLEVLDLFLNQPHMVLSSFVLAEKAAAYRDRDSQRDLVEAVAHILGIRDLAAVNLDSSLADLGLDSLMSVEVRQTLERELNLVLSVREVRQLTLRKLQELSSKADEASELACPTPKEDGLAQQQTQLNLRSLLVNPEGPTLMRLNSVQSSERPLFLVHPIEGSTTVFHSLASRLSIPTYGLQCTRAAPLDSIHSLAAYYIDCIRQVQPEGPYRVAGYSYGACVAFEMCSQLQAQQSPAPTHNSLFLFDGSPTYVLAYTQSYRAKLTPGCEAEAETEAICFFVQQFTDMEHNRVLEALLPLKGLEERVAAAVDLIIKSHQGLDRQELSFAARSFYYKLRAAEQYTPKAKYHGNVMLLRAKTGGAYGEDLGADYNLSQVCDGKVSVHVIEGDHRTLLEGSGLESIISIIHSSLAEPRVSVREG

Structure (SMILES): O=C(Nn1c(C2CCCCC2)nc2ccccc2c1=O)c1ccc(Cl)c([N+](=O)[O-])c1
- IC50 (Fatty acid synthase [1]): 11.2 µM (active)
- IC50 (Fatty acid synthase [2]): 12.8 µM (active)

Structure (SMILES): O=C1Nc2ccc(Cl)cc2C12Nc1ccccc1-c1nnc(SCc3ccccc3F)nc1O2 (configuration not stated)
- IC50 (Genome polyprotein): 43.2 µM (active)

Structure (SMILES): CC(=O)NS(=O)(=O)c1ccc(/N=c2\ssc3c2-c2cc(C)c(C)cc2NC3(C)C)cc1
- IC50 (Leucine aminopeptidase): 3.72 µM (active)

Structure (SMILES): Cc1ccccc1NC(=O)CSc1nnc(C)c(O)n1
- IC50 [3]: > 66 µM (inactive)
- IC50 [4]: > 66 µM (inactive)

Structure (SMILES): CN1C[C@H](C(=O)N[C@]2(C)O[C@@]3(O)[C@@H]4CCCN4C(=O)[C@H](Cc4ccccc4)N3C2=O)CC2c3cccc4[nH]cc(c34)C[C@H]21 (some centres not stated)
- IC50 (Fatty acid synthase [1]): 8.09 µM (active)
- IC50 (Fatty acid synthase [2]): 10.4 µM (active)

Structure (SMILES): CC(C)C(=O)Nc1nnc(SCC(=O)Nc2ccc3c(c2)OCCO3)s1
- IC50 (Leucine aminopeptidase): 18.9 µM (active)

Structure (SMILES): COc1ccc(/C=C(/NC(=O)c2ccc([N+](=O)[O-])cc2)C(=O)NC(C)(C)C)cc1
- IC50 (Fatty acid synthase [1]): 2.56 µM (active)
- IC50 (Fatty acid synthase [2]): 3.45 µM (active)

Structure (SMILES): CCN(c1ccccc1)S(=O)(=O)c1ccc(Cl)c(NC(=O)CN(C)Cc2cccc(F)c2)c1
- AC50 [5]: 6.46 µM (active)
- AC50 [6]: 8.78 µM (active)

Structure (SMILES): C#CCOc1ccc(/C=C2/C(=O)ON=C2C)cc1Cl
- IC50 (Genome polyprotein): 97.1 µM (active)

Structure (SMILES): CCOC(=O)c1sc(=S)n(-c2ccc3c(c2)OCO3)c1N
- IC50 [3]: > 66 µM (inactive)
- IC50 [4]: > 66 µM (inactive)

Structure (SMILES): O=C(O)CC(Cc1ccccc1)C(=O)Nc1ccc([N+](=O)[O-])cc1 (configuration not stated)
- IC50 (Leucine aminopeptidase): 15.7 µM (active)

Structure (SMILES): Cc1cccc(C(=O)Oc2ccc(/C=N/NC(=O)c3cc(O)cc(O)c3)cc2)c1
- IC50 [7]: 4.14 µM (active)

Structure (SMILES): CN(C)c1nc2n(c(=O)n1)C(C#N)CS2 (configuration not stated)
- IC50 [3]: > 66 µM (inactive)
- IC50 [4]: > 66 µM (inactive)

Structure (SMILES): CC(C)(C)c1ccc(C(=O)N2CCC2(C)C(=O)Nc2cccc(C#N)c2)cc1 (configuration not stated)
- IC50 (Fatty acid synthase [1]): 7.78 µM (active)
- IC50 (Fatty acid synthase [2]): 5.47 µM (active)

Structure (SMILES): O=C1NC(=S)N/C1=C/C=C/c1ccccc1
- IC50 (Genome polyprotein): 99.8 µM (active)

Structure (SMILES): CCOc1ccc(NC(=O)Cc2ccccc2)c([N+](=O)[O-])c1
- IC50 (Leucine aminopeptidase): 2.92 µM (active)

Structure (SMILES): O=C(COC(=O)CCc1c[nH]c(O)n1)Nc1ccccc1
- IC50 [3]: 44.9 µM (inactive)
- IC50 [4]: > 66 µM (inactive)

Structure (SMILES): N#Cc1c(NC(=O)Cn2cnc3ccccc3c2=O)oc(-c2ccccc2)c1-c1ccccc1
- IC50 (Leucine aminopeptidase): 1.47 µM (active)

Structure (SMILES): Cc1cc(C)n2cc(CSc3nnc(N)s3)nc2n1
- IC50 [3]: > 66 µM (inactive)
- IC50 [4]: > 66 µM (inactive)

Structure (SMILES): CCc1cccc(CC)c1NC(=O)CSc1nnc(CCC(=O)O)c(O)n1
- IC50 [3]: > 66 µM (inactive)
- IC50 [4]: > 66 µM (inactive)

Structure (SMILES): O=C(NC(=S)Nc1ccccc1)c1cc([N+](=O)[O-])ccc1N1CCOCC1
- IC50 (Fatty acid synthase [1]): 8.19 µM (active)
- IC50 (Fatty acid synthase [2]): 17.2 µM (active)

Structure (SMILES): CCC(C)CCCCCCCCCCC(=O)O (configuration not stated)
- IC50 (Genome polyprotein): 42 µM (active)

Structure (SMILES): Cc1ccc([C@@H]2CC=C(C(=O)O)[C@H](c3ccc(Br)cc3)N2S(=O)(=O)c2ccc(C)cc2)cc1
- IC50 (Genome polyprotein): 42.5 µM (active)

Structure (SMILES): N#Cc1c(C(F)(F)F)cc(-c2cccs2)nc1SC(C(=O)O)c1ccccc1 (configuration not stated)
- IC50 (Fatty acid synthase [1]): 5.81 µM (active)
- IC50 (Fatty acid synthase [2]): 4.45 µM (active)

Structure (SMILES): O=C1COc2ccc(-c3cs/c(=N\c4ccc(OC(F)F)cc4)n3CC3CCCO3)cc2N1 (configuration not stated)
- AC50 [8]: 18.6 µM (active)

Structure (SMILES): CCCCCCn1c(=O)c(F)cn(Cc2ccc(OC)c([N+](=O)[O-])c2)c1=O
- IC50 (Fatty acid synthase [1]): 11.3 µM (active)
- EC50 [9]: > 53 µM (inactive)
- IC50 (Fatty acid synthase [2]): 10.2 µM (active)
- IC50 [10]: > 47.1 µM (inactive)

Structure (SMILES): COc1ccccc1-n1cc(-c2ccc([N+](=O)[O-])cc2)nc1S
- IC50 [3]: > 66 µM (inactive)
- IC50 [4]: > 66 µM (inactive)

Structure (SMILES): C[C@@H]1CN([C@H](C)CO)C(=O)c2cc(NC(=O)Nc3ccc(F)cc3)ccc2O[C@@H](C)CCCCO[C@H]1CN(C)S(=O)(=O)c1ccccc1
- AC50 (Paired box protein Pax-8): 4.82 µM (active)
- AC50 [11]: 35.3 µM (active)

Structure (SMILES): CN(C)c1ccc(/C=N/NC(=O)c2nonc2N)cc1[N+](=O)[O-]
- IC50 (Leucine aminopeptidase): 56.1 µM (active)

Structure (SMILES): O=C(CN1C(=O)c2ccccc2C1=O)NCC1COc2ccccc2O1 (configuration not stated)
- IC50 (Leucine aminopeptidase): 15.6 µM (active)

Structure (SMILES): COc1ccc(C(=O)N/C(=C\c2cn(S(=O)(=O)N(C)C)c3ccccc23)C(=O)NCCCN2CCOCC2)cc1
- IC50 (Fatty acid synthase [1]): 7.83 µM (active)
- IC50 (Fatty acid synthase [2]): 8.48 µM (active)

Structure (SMILES): O=C(O)c1ccc2c(c1)NC(=O)C(N1CCCC1)S2 (configuration not stated)
- IC50 [3]: 55.5 µM (inactive)
- IC50 [4]: > 66 µM (inactive)
